Results: PMC4815073, “Targeting of tubulin polymerization and induction of mitotic blockage by Methyl 2-(5-fluoro-2-hydroxyphenyl)-1H-benzo[d]imidazole-5-carboxylate (MBIC) in human cervical cancer HeLa cell” (Journal of Experimental & Clinical Cancer Research : CR, 2016)

What was measured:
[1] = test system: HeLa cells; assay: MTT cytotoxicity assay, HeLa; format: cell-based, human; conditions: for IC50: Homo sapiens, HeLa, MTT; for SI (Selectivity Index): IC50 WRL-68 / IC50 HeLa
From the text: (§1) The human cervical cancer cell-line, HeLa (CCL-2.2; ATCC, Manassas, VA), HCT-116 (CCL-247; ATCC, Manassas, VA), A549 (CCL-185; ATCC, Manassas, VA), HepG-2 (HB-8065; ATCC, Manassas, VA) and WRL-68 (CL-48; ATCC, Manassas, VA), were obtained from American Type Culture Collection (ATCC). HeLa, A549, HepG2 and WRL68 cells were maintained in Dulbecco’s Modified Eagle Medium (DMEM, Life Technologies, Inc, Rockville, MD). HCT-116 was obtained in McCoy’s 5a Medium Modified (Life Technologies, Inc, Rockville, MD) supplemented with 10 % fetal bovine serum and 1 % penicillin/streptomycin. Cells were incubated at 37 °C in a humidified cell culture 5 % CO2 incubator. Cells were passaged until reaching 70-80-% confluency for experimental purposes.
(§2) Cytotoxicity of MBIC was estimated by MTT assay. Briefly, 1 × 10^4 cells/well were seeded in a 96-well plate and incubated at 37 °C in 5 % CO2. After 24 h, cells were treated with different concentrations (0.02, 0.04, 0.1, 0.2, 0.4, 0.8, 1.5, 3, 6, 12, 25, 50 μM) of MBIC. 0.01 % DMSO was used as vehicle control. Cells were incubated for 24 and 48 h at 37 °C. Subsequently, 50 μl/well of 3-(4,5-dimethylthiazol-2-yl)-2,5-diphenyltetrazolium bromide (MTT, 2 mg/ml) was added and incubated for 2 h. After the incubation, the media was discarded and 100 μl DMSO was replaced into each well to dissolve the formazan crystal. The colorimetric assay was quantified at 570 nm wavelength using Chameleon V microplate reader (Hidex, Turku, Finland). The anti-proliferation activity of MBIC was expressed as an IC50 value. The percentage of cell viability was calculated as described previously.

[2] = test system: A549 cells; assay: MTT cytotoxicity assay, A549; format: cell-based, human; conditions: for IC50: Homo sapiens, MTT
From the text: as §1, §2

[3] = test system: HepG-2 cells; assay: MTT cytotoxicity assay, HepG-2; format: cell-based, human; conditions: for IC50: Homo sapiens, HepG2, MTT
From the text: as §1, §2

[4] = test system: human cancer cell lines (HCT-116, A549, HepG-2, HeLa); assay: MTT cytotoxicity assay, human cancer cell lines taken together; format: cell-based
From the text: as §1
as §2, with “Subsequently, 50 μl/well of 3-(4,5-dimethylthiazol-2-yl)-2,5-diphenyltetrazolium bromide (MTT, 2 mg/ml) was added and incubated for 2 h. After the incubation, the media was discarded and 100 μl DMSO was replaced into each well to dissolve the formazan crystal.” left out

[5] = test system: HeLa cells; assay: Cell cycle analysis (PI, flow cytometry); format: cell-based, human; conditions: 24 h
Experimental: Cell cycle analysis was performed using propidium iodide (PI). Briefly, cells were seeded in a 25 cm^2 flask, then 60 % confluent cells were treated with MBIC for 24 and 48 h. Following incubation, the cells were harvested and spun down for 5 min at 2000 rpm. The supernatant was removed and cells were then fixed in 1 ml of ice-cold 70 % ethanol overnight at -80 °C. Fixed cells were washed with 1 ml 1X PBS and stained in 500 μl of PI containing 5 μg/ml DNase-free RNase for 30 min at room temperature in total darkness. DNA content of the cell was analyzed by flow cytometry. The percentage of G0-G1, S and G2-M cells were then calculated using Fluorescence-activated cell sorting (FACS) software (BD Biosciences).

[6] = test system: Cyclin B1, CDK1, BubR1, Aurora B; assay: Western blot, cell-cycle related proteins in HeLa cells; format: cell-based, human; conditions: HeLa, 0.21, 0.42 and 1 μM, 24 h
Experimental: (§3) Western blot analysis was used to investigate protein expression levels. It was adopted by Suresh Kumar et al.. Briefly, 1 × 10^5 cells/flask was seeded and treated with MBIC in a dose-dependent manner for 24 h. Cells treated with colchicine and nocodazole served as positive controls. Cells were collected and lysed in RIPA buffer supplemented with a 10 μl protease inhibitor cocktail, sodium orthovanadate, and PMSF (Santa Cruz, USA). The lysate was stored at −80 °C until further use. A 40 μg of sample protein was resolved on 10 % SDS-PAGE and transferred to a polyvinylidene difluoride (PVDF) membrane (Merck Millipore, USA). The membrane was blocked in 5 % BSA for 1 h at room temperature following an overnight incubation at 4 °C with the following primary antibodies: Anti-Cyclin B1, anti-CDK1, anti-BubR1, anti-Aurora B, anti-cleaved PARP, anti-cleaved caspase-3/7/9, anti-Bcl-2 and anti-Bax (1:1000) (Cell Signaling Technology (CST), USA), mouse anti β-actin (1:40000) (Sigma-Aldrich, USA) antibodies.
(§4) Membranes were washed with 1X TBS-T prior to incubating with HRP-conjugated goat anti-mouse or anti-rabbit secondary antibodies for 2 h at room temperature. Membranes were washed 3 times with 1X TBS-T to remove excess antibodies before the proteins-antibody complex was detected with Amersham ECL prime western blotting detection reagent (GE Healthcare, USA). Western blot images were quantified and processed by ImageJ software (NIH, USA).

[7] = test system: Bcl-2, Bax, cleaved caspase-3/7/9, cleaved PARP; assay: Western blot, mitochondrial-dependent apoptotic proteins in HeLa cells; format: cell-based, human; conditions: HeLa, 0.21, 0.42 and 1 μM, 24 h
Experimental: as §3, §4

[8] = test system: HeLa cells; assay: Multiparameter cytotoxicity assay (Cellomics HCS); format: cell-based, human; conditions: 24 h
Experimental: The critical apoptotic events in cervical cancer including cell permeability, mitochondrial membrane potential (MMP), cytochrome c release and total nuclear intensity after treatment with MBIC were determined using the Cellomics Multiparameter Cytotoxicity 3 Kit. Briefly, 1 × 10 ^4 cells/well were seeded in a 96-well plate and incubated for 24 h prior to treatment with MBIC at various concentrations. At 24 h post treatment, cells were stained with cell permeability and MMP dye and further incubated for 1 h. Stained cells were fixed and permeabilized with 4 % formaldehyde and 0.1 % Triton X-100 in PBS, respectively. Cells were washed twice with 1X PBS prior to blocking with 3 % bovine serum albumin.
Cells were rinsed twice with Wash Buffer I (1X PBS) and incubated with 50 μl/well of Cytochrome c primary antibody. After 60 min, the plate was washed with 1X Wash Buffer and subsequently, 50 μl of goat anti-mouse secondary antibodies conjugated with DyLight 649 were added into each well. Cells were rinsed twice with Wash Buffer I (1X PBS). Hoechst 33342 was added into the staining solution to stain the nucleus. Stained cells in the 96-well plates were analyzed using ArrayScan High Content Screening (HCS) system (Thermo Scientific, USA).

COC(=O)c1ccc2[nH]c(-c3cc(F)ccc3O)nc2c1 [MBIC, Methyl 2-(5-fluoro-2-hydroxyphenyl)-1H-benzo[d]imidazole-5-carboxylate]
IC50 ([1]; 24 hours): 210 ± 20 nM
IC50 ([1]; 48 hours): 190 ± 30 nM
SI (Selectivity Index) ([1]; 24 hours): 48.04
SI (Selectivity Index) ([1]; 48 hours): 37.68
selectivity in HeLa cells ([1]; versus WRL-68, 24 and 48 h): > 30 fold
IC50 ([2]; A549, 24 hours): 1290 ± 70 nM
IC50 ([2]; A549, 48 hours): 530 ± 100 nM
SI (Selectivity Index) ([2]; IC50 WRL-68 / IC50 A549, 24 hours): 7.82
SI (Selectivity Index) ([2]; IC50 WRL-68 / IC50 A549, 48 hours): 13.50
IC50 ([3]; HepG-2, 24 hours): 2920 ± 100 nM
IC50 ([3]; HepG-2, 48 hours): 1030 ± 90 nM
SI (Selectivity Index) ([3]; IC50 WRL-68 / IC50 HepG-2, 24 hours): 3.45
SI (Selectivity Index) ([3]; IC50 WRL-68 / IC50 HepG-2, 48 hours): 6.95
IC50 [4]: < 5000 nM
G2-M cell population ([5]; 0.21 μM): 26.7 ± 6.3%
G2-M cell population ([5]; 1 μM): 42.8 ± 6.4%
Aurora B protein level (Western blot) [6]: down-regulated
BubR1 protein level (Western blot) [6]: up-regulated
CDK1 protein level (Western blot) [6]: up-regulation
Cyclin B1 protein level (Western blot) [6]: up-regulation
Bax protein level (Western blot) [7]: up-regulation
Bcl-2 protein level (Western blot) [7]: down-regulation
cleaved (activated) caspase-3/7/9 level (Western blot) [7]: increased
cleaved PARP level (Western blot) [7]: increased level
cytochrome c release ([8]; 0.2 and 0.4 μM): considerable elevation
cell number (loss of cells) ([8]; 0.2 and 0.42 μM): dose-dependent loss of cells
membrane permeability ([8]; 0.2 and 0.42 μM): increase of membrane permeability
mitochondrial membrane potential (MMP, Δψm) ([8]; 0.2 and 0.42 μM): exhaustion of MMP
